Entries after “also recorded” stand apart in the source; their conditions may differ.
Legend:
cell wall UCP = assay: Flow cytometry of non-permeabilized cells stained with anti-UCP2 antibody for cell wall UCP; assay type: cell-based, Chlamydomonas reinhardtii; settings: wild type strains of C. reinhardtii treated with norflurazon; FIG. 3
Description: Wild type (CC124, mt−) and cell wall-less (CC, mt+) C. reinhardtii were tested for the presence of UCP by flow cytometry. Non-permeabilized cells were stained with anti-UCP2 antibody (Santa Cruz Technologies). Cells were prepared for staining with goat anti-UCP2 antibody (Santa Cruz Pharmaceuticals) followed by fluorescein conjugated anti-rabbit or goat outer step antibodies, respectively. Data were acquired on a Coulter Elite Epics flow cytometer (Coulter, Hialeah, Fla.) and analyzed with CellQuest software, (Becton Dickinson, San Jose, Calif.). Cells were stained for intracellular peroxide using 6-carboxy-2′-7′-dichlorodihydrofluorescein diacetate (DCF-DA, Molecular Probes, Eugene, Oreg.). Briefly, cells were incubated with DCF-DA for 20 minutes, washed twice in PBS containing 5% fetal calf serum and analyzed flow cytometrically. Mitochondrial membrane potential was assessed using Mitotracker Red (CM-H2XROS, Molecular Probes, Eugene, Oreg.). The cells were resuspended in cold, or room temperature, PBS containing 13% fetal calf serum, 0.5 micromolar Mitotracker Red dye was then added to the suspension. The cells were incubated at 37° C. for 20 minutes, pelleted, and resuspended in prewarmed medium for analysis. […] Each sample population was classified for cell size (forward scatter) and complexity (side scatter), gated on a population of interest and evaluated using 40,000 cells.

[1] = system: wild type strains of algae; assay: Light sensitivity of wild type algae in the presence of the herbicide; assay type: cell-based, Chlamydomonas reinhardtii; settings: in the presence of norflurazon

CNc1cnn(-c2cccc(C(F)(F)F)c2)c(=O)c1Cl [norflurazon]
cell wall expression of UCP (cell wall UCP): upregulates cell wall expression of UCP; also recorded: Increased levels of uncoupling protein
light sensitivity of algae [1]: made light-sensitive

From US7105718B2, “Compositions and methods for regulating metabolism in plants” (The Regents of the University of Colorado, priority 2000, dated 2006)
